In ChEMBL document CHEMBL1201862, “PubChem BioAssay data set” (2004):
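Tested at 5 concentrations; 48 h exposure; 96-well plates; endpoints linearly interpolated, else capped at highest concentration. GI50 = concentration required for 50% inhibition of growth.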 Calls of active or inactive are those of the source. Cut-off read from the data, not from the text of the source: active = GI50 up to about 1.1 µM and inactive = higher.

Experiments:
Assay in all cases: NCI-60 cell line screen, 48 h
SK-OV-3 = test system: SK-OV-3
MDA-MB-231 = test system: MDA-MB-231
Hs-578T = test system: Hs-578T
HOP-62 = test system: HOP-62
UACC-62 = test system: UACC-62
Malme-3M = test system: Malme-3M
NCI-H460 = test system: NCI-H460
NCI-H226 = test system: NCI-H226
MCF7 = test system: MCF7
PC-3 = test system: PC-3
NCI-H23 = test system: NCI-H23
HL-60 = test system: HL-60
RXF 393 = test system: RXF 393
HOP-92 = test system: HOP-92
T47D = test system: T47D
TK-10 = test system: TK-10
SN12C = test system: SN12C
SF-268 = test system: SF-268
LOX IMVI = test system: LOX IMVI

Structure (SMILES) | GI50 (SK-OV-3) | GI50 (MDA-MB-231) | GI50 (Hs-578T) | GI50 (HOP-62) | GI50 (UACC-62) | GI50 (Malme-3M) | GI50 (NCI-H460) | GI50 (NCI-H226) | GI50 (MCF7) | GI50 (PC-3) | GI50 (NCI-H23) | GI50 (HL-60) | GI50 (RXF 393) | GI50 (HOP-92) | GI50 (T47D) | GI50 (TK-10) | GI50 (SN12C) | GI50 (SF-268) | GI50 (LOX IMVI)
COc1ccc2cc(-c3nc(N)nc(N4N=C(C)CC4(C)C)n3)c(=N)oc2c1 | 23.6 µM (inactive) | 18.8 µM (inactive) | 23.2 µM (inactive) | 22.2 µM (inactive) | 17.6 µM (inactive) | 16.5 µM (inactive) | 17.4 µM (inactive) | 15.3 µM (inactive) | 16.7 µM (inactive) | 16.8 µM (inactive) | 16.5 µM (inactive) | 19.9 µM (inactive) | 23.4 µM (inactive) | 19.7 µM (inactive) | 15.4 µM (inactive) | 32.6 µM (inactive) | 20.2 µM (inactive) | 16.9 µM (inactive) | 
CC(C)(C)C(=O)OC(N)/C=C/c1ccccc1 (stereo not drawn) | > 100 µM (inactive) | > 100 µM (inactive) | > 100 µM (inactive) | > 100 µM (inactive) | > 100 µM (inactive) | > 100 µM (inactive) | > 100 µM (inactive) | > 100 µM (inactive) | > 100 µM (inactive) | > 100 µM (inactive) | > 100 µM (inactive) | 76.2 µM (inactive) | > 100 µM (inactive) | > 100 µM (inactive) | > 100 µM (inactive) |  | > 100 µM (inactive) |  | 
CN(C)/C=N/c1ccc2[nH]c3ccccc3c2c1 | 61.7 µM (inactive) | 19.8 µM (inactive) | 38.5 µM (inactive) | 23.2 µM (inactive) | 21 µM (inactive) | 22.1 µM (inactive) |  | 27.4 µM (inactive) | 32.1 µM (inactive) | 36.1 µM (inactive) | 49.3 µM (inactive) | 18.1 µM (inactive) | 25.8 µM (inactive) | 15.8 µM (inactive) | 30.6 µM (inactive) | 28.2 µM (inactive) | 52.4 µM (inactive) | 64.6 µM (inactive) | 15.7 µM (inactive)
CC(=O)/N=C1/N(/C=C2\C(=O)Oc3ccccc3C2=O)C(=O)/C(=C/c2cccc(Cl)c2Cl)N1C | 17.2 µM (inactive) | 29.9 µM (inactive) | 3.87 µM (inactive) | 19.7 µM (inactive) | 31 µM (inactive) | 33.6 µM (inactive) |  | 24 µM (inactive) | 25.7 µM (inactive) | 35.3 µM (inactive) | 23.9 µM (inactive) | 3.99 µM (inactive) | 31.6 µM (inactive) | 0.0333 µM (active) | 32.1 µM (inactive) |  | 42.6 µM (inactive) | 20.4 µM (inactive) | 24.6 µM (inactive)
CCOC(=O)c1cn(C)nc1N/C(C)=C\C(=O)c1ccccc1 | > 100 µM (inactive) | 20.9 µM (inactive) | > 100 µM (inactive) | 33 µM (inactive) | > 100 µM (inactive) | > 100 µM (inactive) | > 100 µM (inactive) | 91.4 µM (inactive) | > 100 µM (inactive) | > 100 µM (inactive) | > 100 µM (inactive) | > 100 µM (inactive) |  | > 100 µM (inactive) | > 100 µM (inactive) | > 100 µM (inactive) | > 100 µM (inactive) | > 100 µM (inactive) | 90.8 µM (inactive)
COc1ccc2nc3c(nc2c1)C(C)(C)C=C3c1ccc(Br)cc1 |  | > 100 µM (inactive) | > 100 µM (inactive) | > 100 µM (inactive) |  | > 100 µM (inactive) | > 100 µM (inactive) | > 100 µM (inactive) | > 100 µM (inactive) | > 100 µM (inactive) |  | > 100 µM (inactive) | > 100 µM (inactive) | 32.5 µM (inactive) | > 100 µM (inactive) | > 100 µM (inactive) | > 100 µM (inactive) | > 100 µM (inactive) | > 100 µM (inactive)
C=CCOC(=O)CC[N+]1=CCC(c2ccccc2)(c2ccccc2)O1 | > 100 µM (inactive) | > 100 µM (inactive) | > 100 µM (inactive) | > 100 µM (inactive) | > 100 µM (inactive) |  | > 100 µM (inactive) | > 100 µM (inactive) | > 100 µM (inactive) | > 100 µM (inactive) | > 100 µM (inactive) |  | > 100 µM (inactive) | > 100 µM (inactive) | > 100 µM (inactive) | > 100 µM (inactive) | > 100 µM (inactive) | > 100 µM (inactive) | 
Cn1c(COC(=O)NC2CCCCC2)c(COC(=O)NC2CCCCC2)c2ccc3cc(Cl)c(Cl)cc3c21 | 22 µM (inactive) | 10.2 µM (inactive) | 3.66 µM (inactive) |  | 11 µM (inactive) | 6.43 µM (inactive) | 4.41 µM (inactive) | 34.2 µM (inactive) | 4.03 µM (inactive) | 15.3 µM (inactive) | 15.6 µM (inactive) | 9.62 µM (inactive) | 6.12 µM (inactive) | 4.88 µM (inactive) | 5.37 µM (inactive) | 16.7 µM (inactive) | 11.7 µM (inactive) | 6.4 µM (inactive) | 13.6 µM (inactive)
N=C(N)N/N=C/c1c(-c2ccc(Cl)cc2)nc2sccn12 | 2.66 µM (inactive) | 2.77 µM (inactive) | 4.97 µM (inactive) | 1.79 µM (inactive) | 1.69 µM (inactive) | 2.71 µM (inactive) | 1.76 µM (inactive) | 2.21 µM (inactive) | 1.72 µM (inactive) | 1.62 µM (inactive) | 4.43 µM (inactive) |  | 1.35 µM (inactive) | 2.1 µM (inactive) | 1.33 µM (inactive) | 3.01 µM (inactive) | 1.95 µM (inactive) | 1.8 µM (inactive) | 1.65 µM (inactive)
N#Cc1c(NC(=O)CCC(=O)O)ccc2ccccc12 | > 100 µM (inactive) | > 100 µM (inactive) | > 100 µM (inactive) | > 100 µM (inactive) | > 100 µM (inactive) | > 100 µM (inactive) | > 100 µM (inactive) | > 100 µM (inactive) | > 100 µM (inactive) | > 100 µM (inactive) | > 100 µM (inactive) |  | > 100 µM (inactive) | > 100 µM (inactive) | > 100 µM (inactive) | > 100 µM (inactive) | > 100 µM (inactive) | > 100 µM (inactive) | 
Cc1cnc(-n2c(C)nc3cc(Cl)ccc3c2=O)s1 | > 100 µM (inactive) | 42.5 µM (inactive) | 74.6 µM (inactive) | > 100 µM (inactive) | 23.2 µM (inactive) | 67.9 µM (inactive) | 30.2 µM (inactive) | 32 µM (inactive) | 17.9 µM (inactive) | 27.9 µM (inactive) | 23.3 µM (inactive) | 26 µM (inactive) |  | 47.6 µM (inactive) | 21.3 µM (inactive) | 43.1 µM (inactive) | 34.2 µM (inactive) | 44.1 µM (inactive) | 41.6 µM (inactive)
CC1=NN(c2cccc(Cl)c2)C2(C1=Cc1ccccc1)C(Cl)C(=O)N2c1nc2ccccc2s1 (stereo not drawn) | 20.9 µM (inactive) | 18.4 µM (inactive) | 23.2 µM (inactive) | 20.3 µM (inactive) |  |  | 15.2 µM (inactive) | 23.8 µM (inactive) | 22.2 µM (inactive) | 16.8 µM (inactive) | 14.5 µM (inactive) | 22.1 µM (inactive) | 14 µM (inactive) | 9.14 µM (inactive) | 18.5 µM (inactive) | 37.8 µM (inactive) |  | 23.2 µM (inactive) | 23.7 µM (inactive)
COC(=O)C1=C(C)NC2=C(C(=O)c3ccccc32)C1c1cn(-c2ccccc2)nc1-c1ccccc1 (stereo not drawn) | > 100 µM (inactive) | > 100 µM (inactive) | > 100 µM (inactive) | > 100 µM (inactive) | > 42.6 µM (inactive) | > 84.7 µM (inactive) |  | 74.1 µM (inactive) | 26.8 µM (inactive) | 4.36 µM (inactive) | 20.7 µM (inactive) | 23.2 µM (inactive) | > 44.8 µM (inactive) | 18.3 µM (inactive) | 20.3 µM (inactive) | > 100 µM (inactive) | > 100 µM (inactive) | > 45.6 µM (inactive) | 37.4 µM (inactive)
CC1=NN(C(=O)CC(=O)NC(=O)/C=C\c2ccccc2)C(=O)C1/N=N/c1ccc([N+](=O)[O-])cc1 (stereo not drawn) | > 100 µM (inactive) | > 100 µM (inactive) | 44 µM (inactive) | > 100 µM (inactive) | 24.3 µM (inactive) | > 100 µM (inactive) | > 100 µM (inactive) |  | > 100 µM (inactive) | > 100 µM (inactive) | 40.2 µM (inactive) | > 100 µM (inactive) | > 100 µM (inactive) | 38.3 µM (inactive) | > 100 µM (inactive) | 48.5 µM (inactive) | > 100 µM (inactive) | > 100 µM (inactive) | > 100 µM (inactive)
OC(c1ccsc1)c1cc2ccccc2s1 (stereo not drawn) | > 10 µM (inactive) | > 10 µM (inactive) | > 10 µM (inactive) | > 10 µM (inactive) | > 10 µM (inactive) |  | > 10 µM (inactive) | > 10 µM (inactive) | > 10 µM (inactive) | > 10 µM (inactive) | > 10 µM (inactive) | > 10 µM (inactive) | > 10 µM (inactive) | > 10 µM (inactive) | > 10 µM (inactive) | > 10 µM (inactive) | > 10 µM (inactive) | > 10 µM (inactive) | > 10 µM (inactive)
CCc1nc(N)nc(N)c1-c1ccc(N2CCNCC2)cc1 | > 100 µM (inactive) | > 93.3 µM (inactive) | > 100 µM (inactive) | 55.8 µM (inactive) | 69 µM (inactive) |  | 33.1 µM (inactive) | > 100 µM (inactive) | 47.3 µM (inactive) | 49.3 µM (inactive) | 46 µM (inactive) | 34.4 µM (inactive) | 64.9 µM (inactive) | > 100 µM (inactive) | 57.7 µM (inactive) | > 100 µM (inactive) | 87.7 µM (inactive) | 84.7 µM (inactive) | 39.7 µM (inactive)
